Tests used:
[1] = system: HPRT1 mRNA in liver tissues; assay: HepG2 orthotopic liver tumor model: HPRT1 mRNA knockdown in liver; assay type: in vivo, mouse; conditions: 5 mg/kg DsiRNA IV, Table 8 formulation, FIG. 14
From the text: In order to assess the efficiency of targeting and subsequent functionality of an amino-amine or amino-amide cationic lipid formulation of dsRNA, a second intrahepatic tumor model was utilized. Liver tumors were established in mice by direct intrahepatic injection of HepG2 tumor cells. Female nu/nu mice were used as hosts for the HepG2 tumors. Maintaining the mice under anesthesia using Avertin (Sigma), a single 1-cm incision across the midline was made below the sternum, and the left lateral hepatic lobe is exteriorized. Approximately 3×10^6 HepG2 cells suspended in 60 μL of 50% PBS/50% Matrigel™ (BD) are injected slowly into the lobe at a shallow angle using a Hamilton syringe and a 30-gauge needle. A swab was then applied to the puncture wound to stop any bleeding prior to suturing. Mice were allowed to recover from anesthesia in a sterile cage and monitored closely for 2-4 hours before being returned to conventional housing. About three weeks after tumor implantation, mice were randomized into treatment groups. […] The dose was calculated based on mg of dsRNAs/kg of body weight basis according to individual animal weights. […] Body weights were monitored throughout the duration of the study as an indicator of developing tumor burden and treatment tolerability. For efficacy studies, defined humane end points were determined as a surrogate for survival. […]

[2] = system: HPRT1 mRNA in mouse liver; assay: In vivo knockdown of HPRT1 mRNA in mouse liver, lipid particles with DsiRNA; conditions: CD1 mice; for % mRNA Knockdown: single IV dose 5 mg/kg, HPRT1 DsiRNA; for % mRNA Knockdown / mrna remaining at 5 mg/kg: 48 hours; for gene silencing at the lower dose: single dose 1 mg/kg, FIG. 12; for mrna remaining at 5 mg/kg: Mus musculus, single dose 5 mg/kg, FIG. 11, read-out: remaining mRNA levels
Procedure: Formulations were prepared with the following approximate percentages: 20 mol % of one of either L-1, L-2, L-5, L-6, L-7, L-8, L-22, or L-30; 26 mol % of DODMA; 3 mol % of PEG2000-DMPE; 3 mol % of PEG2000-DMG; 13 mol % of DSPC; and 33 mol % of cholesterol. The formulation further included a DsiRNA:total lipid ratio of about 1:20 (w/w).
Approximately 4-week old CD1 female mice were administered a single dose (either 1 mg/kg or 5 mg/kg) of the lipid particle formulation with a dosing volume of 10 μL/g of body weight by intravenous administration via a tail vein. After 48 hours (post-dosing), tissues were collected in RNALater (Qiagen). In the end point analysis, the total RNA was isolated from the mouse liver for RT-qPCR. The RNA sample was heated at 70° C., for 5 minutes with Oligo(dT) primers before RT. In the PCR reaction, mHPRT expression was normalized with RPL23 (a housekeeping gene, used as a control herein). FIGS. 11 and 12 show data with error bars with mean±SD for n=5 animals/group.

[3] = Tolerability of lipid formulations in CD-1 mice (serum clinical chemistry, body weight, liver); assay type: in vivo, mouse; conditions: female CD-1 mice, 2 doses (qod) 10 mg/kg DsiRNA
Procedure: In order to assess the tolerability of a lipid formulation containing an amino-amine or amino-amide cationic lipid of the invention and a dsRNA, female CD-1 mice were injected with L-6 and L-30 formulations [administered in 2 doses (qod) at 10 mg/kg DsiRNA dose, about 200 mg/kg total lipid dose each] and serum samples were collected 48 hours after the second dose. Serum samples were tested for a panel of clinical chemistry assessments, including liver function tests (LFTs) via measurement of enzymes alanine transaminase (ALT) and aspartate transaminase (AST). Phosphate buffered saline (PBS) was used as vehicle control group. ALT and AST elevation was <3x of PBS group for formulations L-6 and L-30. There were also no changes in body weight or liver observed for L-6 and L-30 formulations. Thus, L-6 and L-30 formulations were well-tolerated. Thus, any of the lipids described herein, and formulations thereof, would be useful for the delivery of one or more agent, e.g., polyanionic or antisense payloads.

[4] = system: Hep3B tumor; assay: Hepatocellular carcinoma anti-tumor efficacy, orthotopic Hep3B model (serum AFP, tumor weight); assay type: in vivo, mouse; conditions: 5 mg/kg active DsiRNA IV, vs control payload and PBS; for reducing serum AFP: FIG. 15; for reducing tumor weight: FIG. 16
From the text: Liver tumors were established in mice by direct intrahepatic injection of Hep3B tumor cells as described in Example 10. About two weeks after tumor implantation, mice were randomized into treatment groups. Mice (n=6 per group) received: either (1) the amino-amine or amino-amide lipid formulation of a control dsRNA; (2) the amino-amine or amino-amide lipid formulation of an active dsRNA; or (3) vehicle control, as administered by standard intravenous (i.v.) injection via the lateral tail vein. The dose was calculated based on mg of dsRNAs/kg of body weight basis according to individual animal weights. In the experiments that generated the results shown in FIGS. 15 and 16, animals were dosed at 5 mg/kg DsiRNA with L-6- or L-30-formulated lipid particles. Table 8 above presents specific compositions of lipid formulations comprising the L-6 and L-30 lipids used in the instant studies.
Body weights were monitored throughout the duration of the study as an indicator of developing tumor burden and treatment tolerability. For efficacy studies, defined humane end points were determined as a surrogate for survival. Assessments were made based on a combination of clinical signs, weight loss, and abdominal distension to define the day of euthanization due to tumor burden. Tumor tissues were removed from the animals of different treatment groups and tumor weights were measured to determine efficacy of different treatment groups. Serum α-fetoprotein (AFP) levels were also measured as a biomarker for tumor burden.

[5] = TNS fluorescence method, apparent pKa of lipid in formulation; assay type: physicochemical; conditions: apparent pKa of the formulation, pH at half-maximal TNS fluorescence
From the text: The TNS fluorescence method may be used to determine the apparent pKa of the lipid in the formulation. TNS (2-(p-toluidino)-6-naphthalene sulfonic acid) is a negatively charged fluorescent dye whose fluorescence is quenched in the presence of water. […] The increase in the fluorescence can thus be used to estimate the ionization of a cationic lipid when present in different pH environment. Methods of determining pKa using TNS are known in the art, e.g., as described in the Examples.
To determine pKa values of the cationic lipids of the invention, formulations (concentration of 1 mM) were incubated in phosphate buffer at different pH values, to which TNS dissolved in DMSO was added (resulting final concentration of 6 μM TNS). Fluorescence of the resulting solution was measured on a SpectraMax® M3 fluorescence plate reader with excitation wavelength of 325 nm and emission wavelength of 435 nm. The measured fluorescence of TNS was fitted with a three-parameter sigmoidal function shown in equation 1.
The pH at which half of the maximum fluorescence was reached was reported as the apparent pKa of the formulation, where a and b are dimensionless parameters reflecting the maximum observed fluorescence and slope of the sigmoidal function, respectively.

Compound | delivery of anti-HPRT1 DsiRNA payload to liver tissues [1] | % mRNA Knockdown [2] [%] | gene silencing at the lower dose [2] | mrna remaining at 5 mg/kg [2] [%] | changes in body weight or liver [3] | tolerability [3] | reducing serum AFP [4] | reducing tumor weight [4] | pKa [5]
CCCCC/C=C\C/C=C\CCCCCCCCC(CCCCCCCC/C=C\C/C=C\CCCCC)NC(=O)CN(C)C [Compound L-30] | remarkably effective | 86.4 | effective gene silencing | ~15 | no changes | well-tolerated | remarkably effective | remarkably effective | 5.8
CCCCC/C=C\C/C=C\CCCCCCCCC(CCCCCCCC/C=C\C/C=C\CCCCC)N1CCN(C)CC1 [Compound L-6] | remarkably effective | 88.2 | effective gene silencing | 15 to 45 | no changes | well-tolerated | remarkably effective | remarkably effective | 5.6

From US11059807B2, “Amine cationic lipids and uses thereof” (Dicerna Pharmaceuticals, Inc., priority 2011, dated 2021)
